# In patent publication US20170354655A1, “TLR INHIBITOR AND BRUTON'S TYROSINE KINASE INHIBITOR COMBINATIONS” (Pharmacyclics LLC, priority 2014, published 2017):
# How the values were obtained:
# Format in all cases: cell-based
# HBL1 cells = experiment: Combined drug treatment, CellTiter-Glo cell viability assay in HBL1 cell line
# Description: (§1) A 40 μL aliquot of CellTiter-Glo® reagent was added directly into each well of the 96-W plate. The plate was then shaken on a Shaker (Labsystem Wellmix) at speed 5 for 10-20 min at room temperature. Next, about 100 μL of the mixed medium was transferred to a white, non-transparent, flat bottom 96-W plate for assaying. A Flexstation 3 luminometer was used for detecting and measuring the luminescent signals. Measurements were taken at room temperature.
# (§2) The luminescent measurements were subsequently processed and analyzed using CalcuSyn (CI) and Chalice Analyzer (synergy score). […] In general, the resulting combination index (CI) obtained from the Chou-Talalay method defines quantitatively for additive effect (CI=1), synergism (CI<1), and antagonism (CI>1) in drug combinations. […] Biotechnol.
# (§3) Cell growth effects were determined by the CellTiter-Glo® luminescent cell viability assay (Promega). The combination index (C.I.), a drug interactivity measurement was calculated with Calcusyn. Synergy scores were calculated by the Chalice Analyzer (Horizon CombinatoRx). ApoDETECT Annexin V-FITC Kit was used to detect apoptotic cell population. LC3B antibody (Cell Signaling) was used for Western blot analysis to detect autophagic marker LC3B-II. HBL-1 cells were plated in MethoCult (StemCell Technologies) and number of colonies was counted 7 days after drug treatment to determine the effect on colony formation. TLR related gene expression was determined by using RT^2 Profiler PCR Array (Qiagen).
# OCI-LY10 cells = experiment: Combined drug treatment, CellTiter-Glo cell viability assay in OCI-LY10 cell line; settings: for synergy score for the chloroquine/ibrutinib combination: LY10 cells
# Description: as §1, §2, §3
# TMD8 cells = experiment: Combined drug treatment, CellTiter-Glo cell viability assay in TMD8 cell line; settings: for luminescent signal (CellTiter-Glo): test ODN 1 μM or chloroquine 10 μM, 3 days; for average CI value for the ibrutinib and chloroquine combination: CalcuSyn; for synergy score for the ibrutinib and chloroquine combination: Chalice Analyzer
# Description: 200 μl of TMD8 wt cells (1.0×10^4 cells) at 5.0×10^4 cells/ml was plated into each well of a 96-well plate. The cells were grown in RPMI-10P medium.
# The TLR9 antagonists used for this experiment included ODN 4084-F, ODN INH-1, ODN INH-18, and ODN TTAGGG. […] The TLR9 agonists used for this experiment included ODN 2006, ODN 2216, and ODN 2395. The TLR9 agonists were used to stimulate TLR signaling. Chloroquine is a non-specific TLR antagonist.
# The stock solutions for the TLR9 antagonists and the TLR9 agonists were each prepared at 500 μM concentration. The stock solution for chloroquine diphosphate was prepared at 50 mM concentration.
# The 96-W plate was then incubated for 3 days. Cell viability was examined using a CellTiter-Glo® assay.
# as §1
# CellTiter-Glo® reagents were thawed prior to use. Cells pre-plated onto a second 96-W plate and incubated at room temperature for 30 minutes were used for calibration purposes.
# The luminescent measurements were subsequently processed and analyzed using CalcuSyn (CI) and Chalice Analyzer (synergy score). CalcuSyn performs the multiple drug dose-effect calculations using the Median Effect methods described by T-C Chou and P. Talalay in “Analysis of combined drug effects: a new look at a very old problem,” Trends Pharmacol. Sci. 4:450-454 (1983). In general, the resulting combination index (CI) obtained from the Chou-Talalay method defines quantitatively for additive effect (CI=1), synergism (CI<1), and antagonism (CI>1) in drug combinations. […] Biotechnol. 27(7):659-666 (2009).
# as §3
smiles,measurement,setting,value
"CCN(CC)CCCC(C)Nc1ccnc2cc(Cl)ccc12 (stereo not shown) [Chloroquine, chloroquine]",synergy with ibrutinib (in words),HBL1 cells,Synergy was observed
same,CI value for the chloroquine/ibrutinib combination,HBL1 cells; with agonist ODN2216,0.35
same,synergy score for the chloroquine/ibrutinib combination,HBL1 cells; with agonist ODN2216,3.5
same,CI value for the chloroquine/ibrutinib combination,HBL1 cells; without agonist ODN2216,0.56
same,synergy score for the chloroquine/ibrutinib combination,HBL1 cells; without agonist ODN2216,3.03
same,CI value for the chloroquine/ibrutinib combination,"OCI-LY10 cells; LY10, with agonist ODN2216",0.59
same,CI value for the chloroquine/ibrutinib combination,"OCI-LY10 cells; LY10, without agonist ODN2216",0.50
same,synergy score for the chloroquine/ibrutinib combination,OCI-LY10 cells; with agonist ODN2216,2.63
same,synergy score for the chloroquine/ibrutinib combination,OCI-LY10 cells; without agonist ODN2216,2.44
same,synergy with ibrutinib (in words),OCI-LY10 cells; OCI-LY10 cells,Synergy was observed
same,luminescent signal (CellTiter-Glo),"TMD8 cells; Control (no TLR9 agonist), ibrutinib 0 nM",275515
same,luminescent signal (CellTiter-Glo),"TMD8 cells; Control (no TLR9 agonist), ibrutinib 0.0003 nM",264724
same,luminescent signal (CellTiter-Glo),"TMD8 cells; Control (no TLR9 agonist), ibrutinib 0.0013 nM",265058
same,luminescent signal (CellTiter-Glo),"TMD8 cells; Control (no TLR9 agonist), ibrutinib 0.0064 nM",271348
same,luminescent signal (CellTiter-Glo),"TMD8 cells; Control (no TLR9 agonist), ibrutinib 0.032 nM",276679
same,luminescent signal (CellTiter-Glo),"TMD8 cells; Control (no TLR9 agonist), ibrutinib 0.16 nM",250469
same,luminescent signal (CellTiter-Glo),"TMD8 cells; Control (no TLR9 agonist), ibrutinib 0.8 nM",177291
same,luminescent signal (CellTiter-Glo),"TMD8 cells; Control (no TLR9 agonist), ibrutinib 4 nM",86168
same,luminescent signal (CellTiter-Glo),"TMD8 cells; Control (no TLR9 agonist), ibrutinib 20 nM",78916
same,luminescent signal (CellTiter-Glo),"TMD8 cells; Control (no TLR9 agonist), ibrutinib 100 nM",61700
same,luminescent signal (CellTiter-Glo),"TMD8 cells; TLR9 agonist ODN 2006 1 μM, ibrutinib 0 nM",275829
same,luminescent signal (CellTiter-Glo),"TMD8 cells; TLR9 agonist ODN 2006 1 μM, ibrutinib 0.0003 nM",258871
same,luminescent signal (CellTiter-Glo),"TMD8 cells; TLR9 agonist ODN 2006 1 μM, ibrutinib 0.0013 nM",250534
same,luminescent signal (CellTiter-Glo),"TMD8 cells; TLR9 agonist ODN 2006 1 μM, ibrutinib 0.0064 nM",249082
same,luminescent signal (CellTiter-Glo),"TMD8 cells; TLR9 agonist ODN 2006 1 μM, ibrutinib 0.032 nM",239360
same,luminescent signal (CellTiter-Glo),"TMD8 cells; TLR9 agonist ODN 2006 1 μM, ibrutinib 0.16 nM",247058
same,luminescent signal (CellTiter-Glo),"TMD8 cells; TLR9 agonist ODN 2006 1 μM, ibrutinib 0.8 nM",138546
same,luminescent signal (CellTiter-Glo),"TMD8 cells; TLR9 agonist ODN 2006 1 μM, ibrutinib 4 nM",79843
same,luminescent signal (CellTiter-Glo),"TMD8 cells; TLR9 agonist ODN 2006 1 μM, ibrutinib 20 nM",67694
same,luminescent signal (CellTiter-Glo),"TMD8 cells; TLR9 agonist ODN 2006 1 μM, ibrutinib 100 nM",62288
same,luminescent signal (CellTiter-Glo),"TMD8 cells; TLR9 agonist ODN 2216 1 μM, ibrutinib 0 nM",203015
same,luminescent signal (CellTiter-Glo),"TMD8 cells; TLR9 agonist ODN 2216 1 μM, ibrutinib 0.0003 nM",193567
same,luminescent signal (CellTiter-Glo),"TMD8 cells; TLR9 agonist ODN 2216 1 μM, ibrutinib 0.0013 nM",229545
same,luminescent signal (CellTiter-Glo),"TMD8 cells; TLR9 agonist ODN 2216 1 μM, ibrutinib 0.0064 nM",200219
same,luminescent signal (CellTiter-Glo),"TMD8 cells; TLR9 agonist ODN 2216 1 μM, ibrutinib 0.032 nM",199458
same,luminescent signal (CellTiter-Glo),"TMD8 cells; TLR9 agonist ODN 2216 1 μM, ibrutinib 0.16 nM",207276
same,luminescent signal (CellTiter-Glo),"TMD8 cells; TLR9 agonist ODN 2216 1 μM, ibrutinib 0.8 nM",115898
same,luminescent signal (CellTiter-Glo),"TMD8 cells; TLR9 agonist ODN 2216 1 μM, ibrutinib 4 nM",65959
same,luminescent signal (CellTiter-Glo),"TMD8 cells; TLR9 agonist ODN 2216 1 μM, ibrutinib 20 nM",48838
same,luminescent signal (CellTiter-Glo),"TMD8 cells; TLR9 agonist ODN 2216 1 μM, ibrutinib 100 nM",44662
same,luminescent signal (CellTiter-Glo),"TMD8 cells; TLR9 agonist ODN 2395 1 μM, ibrutinib 0 nM",170080
same,luminescent signal (CellTiter-Glo),"TMD8 cells; TLR9 agonist ODN 2395 1 μM, ibrutinib 0.0003 nM",168027
same,luminescent signal (CellTiter-Glo),"TMD8 cells; TLR9 agonist ODN 2395 1 μM, ibrutinib 0.0013 nM",177301
same,luminescent signal (CellTiter-Glo),"TMD8 cells; TLR9 agonist ODN 2395 1 μM, ibrutinib 0.0064 nM",170957
same,luminescent signal (CellTiter-Glo),"TMD8 cells; TLR9 agonist ODN 2395 1 μM, ibrutinib 0.032 nM",167073
same,luminescent signal (CellTiter-Glo),"TMD8 cells; TLR9 agonist ODN 2395 1 μM, ibrutinib 0.16 nM",156507
same,luminescent signal (CellTiter-Glo),"TMD8 cells; TLR9 agonist ODN 2395 1 μM, ibrutinib 0.8 nM",100658
same,luminescent signal (CellTiter-Glo),"TMD8 cells; TLR9 agonist ODN 2395 1 μM, ibrutinib 4 nM",69482
same,luminescent signal (CellTiter-Glo),"TMD8 cells; TLR9 agonist ODN 2395 1 μM, ibrutinib 20 nM",59032
same,luminescent signal (CellTiter-Glo),"TMD8 cells; TLR9 agonist ODN 2395 1 μM, ibrutinib 100 nM",55950
same,synergy with ibrutinib (in words),"TMD8 cells; TMD8 cells, whether or not TLR agonist was present",Synergy was observed
same,average CI value for the ibrutinib and chloroquine combination,"TMD8 cells; TMD8 cells, with agonists",0.11
same,synergy score for the ibrutinib and chloroquine combination,"TMD8 cells; TMD8 cells, with agonists",4.22
same,average CI value for the ibrutinib and chloroquine combination,"TMD8 cells; TMD8 cells, without agonists",0.40
same,synergy score for the ibrutinib and chloroquine combination,"TMD8 cells; TMD8 cells, without agonists",3.48
